Common to all, as to format: cell-based
The subject of test [1] is K562 (chronic myelogenous leukemia). Put plainly: MTT anti-proliferative assay, K562. The note with it: Homo sapiens, 48 h. The procedure:
For the in vitro assays, a stock solution (1% DMSO in the appropriate buffer with the tested compound diluted under sonication) was prepared from which several dilutions were made with the appropriate buffer.
Human cell lines were obtained from the Institute of Cytology, Russian Academy of Sciences. […] Plates were incubated under standard conditions for 48 h.

For test [2], the system named is MCF-7 (breast adenocarcinoma). Description: MTT anti-proliferative assay, MCF-7. The conditions noted are these: Homo sapiens, MCF7, 48 h. The procedure: (§1) To determine the selectivity of the synthesized compounds 7–16 toward various cancer cells and normal human cells, the anti-proliferative activity against K562 (chronic myelogenous leukemia), HL-60 (promyelocytic leukemia), MCF-7 (breast adenocarcinoma), HeLa (cervix carcinoma), HepG2 (human liver cancer), A549 (lung carcinoma), OKP-GS (renal cell carcinoma), and normal cells RPMI 1788 (B lymphocyte, the human cell line) was investigated.
(§2) Each in vitro experiment was performed at least in triplicate and the standard deviation of absorbance was less than 10% of the mean. For the in vitro assays, a stock solution (1% DMSO in the appropriate buffer with the tested compound diluted under sonication) was prepared from which several dilutions were made with the appropriate buffer.
(§3) Human cell lines were obtained from the Institute of Cytology, Russian Academy of Sciences. The cell lines studied were maintained in RPMI 1640 medium (AppliChem, Darmstadt, Germany) supplemented with 20% (HL-60, RPMI 1788) fetal calf serum (HyClone, Cramlington, UK), in DMEM (A 549) and Eagle’s MEM (AppliChem) (MCF7, HeLa) with 10% fetal calf serum (HyClone). Cells were cultivated at 37 °C in a humidified atmosphere of 5% CO2. Cellular sensitivities to synthesized compounds and standards were measured with the MTT assay. Cells were plated in triplicate in 96-well plates (10^5 cells/well for suspended cell cultures and 5 × 10^3 cells/well for monolayer cultures); on the same day (suspended cell cultures) or on the following day (monolayer cultures), compounds were added at the appropriate dilutions. Anti-proliferative activity was studied at concentrations 0.1–50.0 µM. The reference drugs were imatinib, sorafenib and nilotinib. Plates were incubated under standard conditions for 48 h. Thereafter, 10 μL MTT (Sigma) in phosphate-buffered saline (5 mg/mL) was added. The plates were incubated for an additional 4 h and 150 μL dimethylsulphoxide (DMSO) was added to dissolve the formazan crystals. The optical density was read on a HALO MPR-95 Microplate Reader (Dynamica Scientific Ltd., Melbourne, Victoria, Australia) at 570 nm. The antiproliferative effects were taken as degrees of inhibition of tumor cells (%). The average of three parallel measurements was calculated for each concentration of test compound. The degree of cell growth suppression was plotted as a function of the logarithm of the concentration. The half maximal inhibitory concentration (IC50) was determined graphically for active compounds.

The test system of test [3] is HepG2 (human liver cancer). Description: MTT anti-proliferative assay, HepG2. The conditions noted are these: 48 h. The procedure: as §1, §2, §3
In test [4] the test system is RPMI 1788 (B lymphocyte, normal human lymphoblastoid cells). Put plainly: MTT assay on normal cells RPMI 1788. The procedure:
as §1, §2
as §3, with “Anti-proliferative activity was studied at concentrations 0.1–50.0 µM.” left out

The structures appear in SMILES notation.

In PMC8657793, “Synthesis, In Vitro and In Silico Anticancer Activity of New 4-Methylbenzamide Derivatives Containing 2,6-Substituted Purines as Potential Protein Kinases Inhibitors” (International Journal of Molecular Sciences, 2021) one finds IC50 and inhibition data, which are given here for six molecules.

As usually defined, the IC50 is the midpoint of a concentration-inhibition curve. Read a high IC50 as weaker potency. By inhibition is commonly meant the drop in the measured response relative to a control, in per cent. A lower inhibition goes with a weak effect. Turning to `O=C(Nc1cccc(C(F)(F)F)c1)c1ccc(Cn2cnc3c(Cl)nc(Cl)nc32)cc1` [Compound 7, 4-((2,6-Dichloro-9H-purin-9-yl)methyl)-N-(3-(trifluoromethyl)phenyl)benzamide], the figures for the 50% inhibitory concentration (IC50) in test [1], in test [2] and in test [3] were 2.27 ± 0.81 µM, 12.3 ± 4.07 µM and 11.3 ± 1.44 µM, respectively. In test [4], this molecule displayed an inhibition at 100 µM of 98.9%.
In the case of `COc1nc(Cl)nc2c1ncn2Cc1ccc(C(=O)Nc2cccc(C(F)(F)F)c2)cc1` [Compound 13, 4-((2-Chloro-6-methoxy-9H-purin-9-yl)methyl)-N-(3-(trifluoromethyl)phenyl)benzamide], the 50% inhibitory concentration (IC50) in test [1] was 29.7 ± 1.87 µM; in test [2] it was 14.2 ± 2.71 µM; in test [3] it was 9.16 ± 0.78 µM. The inhibition at 100 µM in test [4] is 100%.
The corresponding values for `CNC(=O)c1cc(Oc2ccc(NC(=O)Nc3ccc(Cl)c(C(F)(F)F)c3)cc2)ccn1` [Sorafenib, sorafenib, reference compound] are 2.9 ± 0.4 µM, 13.7 ± 3.08 µM, 8.4 ± 2.8 µM and 100%.
The corresponding values for `Cc1cn(-c2cc(NC(=O)c3ccc(Cn4cnc5c(Cl)nc(Cl)nc54)cc3)cc(C(F)(F)F)c2)cn1` [Compound 10, 4-((2,6-Dichloro-9H-purin-9-yl)methyl)-N-(3-(4-methyl-1H-imidazol-1-yl)-5-(trifluoromethyl)-phenyl)benzamide] are 2.53 ± 0.77 µM, 8.1 ± 1.98 µM, 12.7 ± 0.7 µM and 98.5%.
Taken in the same sequence, the figures for `Nc1nc(Cl)nc2c1ncn2Cc1ccc(C(=O)Nc2cccc(C(F)(F)F)c2)cc1` [Compound 15, 4-((6-Amino-2-chloro-9H-purin-9-yl)methyl)-N-(3-(trifluoromethyl)phenyl)benzamide] were 30.6 ± 0.94 µM, 76.8 ± 3.25 µM, 88.3 ± 2.54 µM and 93.5%.
For the molecule `COc1nc(Cl)nc2c1ncn2Cc1ccc(C(=O)Nc2cc(-n3cnc(C)c3)cc(C(F)(F)F)c2)cc1` [Compound 14, 4-((2-Chloro-6-methoxy-9H-purin-9-yl)methyl)-N-(3-(4-methyl-1H-imidazol-1-yl)-5-(trifluoromethyl)phenyl)benzamide], the values for the half-inhibitory concentration (IC50) in test [1], in test [2] and in test [3] were 27.5 ± 1.19 µM, 67.4 ± 3.29 µM and 28.5 ± 1.07 µM, respectively. The molecule further had an inhibition at 100 µM in test [4] of 99.1%.
